Test results taken from article PMC12118597 (Science Advances, 2025).
Several values for one entry are separate records, joined by “and”; a condition that tells them apart may be missing. Identical values can stand only once. Like-named read-outs stand apart in the source and are kept apart here.

Assays:
Kinetic solubility = conditions: for Kinetic solubility (uM), mean: DMSO concentration 5%; for Mean solubility: phosphate-buffered saline pH 7.4, triplicate
Caco-2 cells = system: Caco-2 cells
Protocol: Caco-2 cell plates were obtained commercially and were maintained for 21 days at 37°C with 5% CO2. Cells were washed with Hank’s balanced salt solution with 5 mM Hepes for 30 min before starting the experiment. Test compound solutions are prepared by diluting DMSO stock into Hank’s balanced salt solution buffer, resulting in a final DMSO concentration of 0.1%. Before the assay, cell monolayer integrity was verified by […] electrical resistance to ensure that wells have resistance above the acceptance cutoff (1 kilohm). Transport experiments were initiated by adding test compounds to the apical (75 μl) or basal (250 μl) side. Transport plates were incubated at 37°C in a humidified incubator with 5% CO2. Samples were taken from the donor and acceptor compartments after 1 hour and analyzed by liquid chromatography–tandem mass spectrometry (LC-MS/MS) using an AB Sciex API 4000 instrument coupled to a Shimadzu LC-20 AD LC Pump system. Samples were separated using a Waters Atlantis T3 dC18 reverse phase HPLC column (20 mm by 2.1 mm) at a flow rate of 0.5 ml/min. The mobile phase consisted of 0.1% formic acid in acetonitrile (solvent A) and 0.1% formic acid in water (solvent B).
Apparent permeability (Papp) values were calculated using the following equation Papp=(dQ/dt)/A/C0 where dQ/dt is the initial rate of compound transport across the cell monolayer, A is the surface area of the filter membrane, and C0 is the initial concentration of the test compound, calculated for each direction using a four-point calibration curve by LC-MS/MS.
The net flux ratio between the two directional transports was calculated by the following equation Ratio=PappB−A/PappA−B where PappB-A and PappA-B represent the apparent permeability of compounds from the basal-to-apical and apical-to-basal sides of the cellular monolayer, respectively. Recovery was calculated on the basis of the compound concentration at the end of the experiment compared to that at the beginning of the experiment, adjusted for volumes.

Microsomal stability = type: in vitro ADME, mouse; conditions: for CLint (mouse): intrinsic clearance from t1/2
Protocol: The assay was carried out in 96-well plates at 37°C. Reaction mixtures (25 μl) contained a final concentration of 1 μM compound, liver microsome protein (0.5 mg/ml), and 1 mM NADPH (reduced form of nicotinamide adenine dinucleotide phosphate) and/or 1 mM uridine diphosphate glucuronic acid (with alamethicin) in 100 mM potassium phosphate (pH 7.4) with 3 mM MgCl2. After 0, 15, 30, and 60 min, 150 μl of quench solution (100% acetonitrile with 0.1% formic acid) with an internal standard was transferred to each well. Reactions containing the same components, except NADPH, were prepared as the negative control.
The extent of metabolism was calculated as the disappearance of compounds compared to the 0-min time incubation.

human macrodomain Targ1 = molecular target: T1, human macrodomain Targ1 (Homo sapiens, UniProt Q9Y530); experiment: HTRF peptide displacement assay, human Targ1; type: binding; conditions: HTRF binding curve, Targ1
T1 construct: Targ1_HTRF; HTRF assay; pET22b(+); His6, TEV; 1-153; made in house
T1 sequence (Q9Y530 with tags, fused parts or gaps): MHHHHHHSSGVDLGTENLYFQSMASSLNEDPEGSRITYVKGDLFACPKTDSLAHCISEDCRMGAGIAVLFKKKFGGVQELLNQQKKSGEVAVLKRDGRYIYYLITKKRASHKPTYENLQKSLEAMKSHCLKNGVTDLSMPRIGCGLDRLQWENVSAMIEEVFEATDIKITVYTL

[1] = molecular target: T2, SARS-CoV-2 NSP3 macrodomain (Mac1) (Severe acute respiratory syndrome coronavirus 2, UniProt P0DTD1); experiment: biochemical; type: binding
[2] = molecular target: T2, SARS-CoV-2 NSP3 macrodomain (Mac1); type: binding; conditions: for 1-BDC (PanDDA run, DMSO background map): event 1; for 2*(1-BDC) (%): occupancy estimate from PanDDA; for PanDDA run, overall: Hit / PanDDA run, overall: Modeled / PanDDA run, DMSO background map: 1-BDC / PanDDA run, DMSO background map: Hit: crystal soak 10 mM; for PanDDA run, overall: Hit / PanDDA run, overall: Modeled: P43 crystal form; for Total number of conformations: ligand conformations modeled in the crystal structure
[3] = Caco-2 permeability assay, compound concentration 5
[4] = Mouse microsome stability assay
[5] = HTRF binding curve, SARS-CoV-2 Mac1
[6] = PanDDA background density correction, 1-BDC
[7] = crystal soak concentration 20 mM
[8] = crystal soak concentration 20 mM, P43 crystals
[9] = SARS CoV-2 macrodomain HTRF assay, dose-response
[10] = ligand-bound crystal structure obtained (TRUE)
[11] = site occupied in X-ray crystal structure
[12] = crystal soak concentration 10 mM
[13] = crystal soak concentration 10 mM, P43 crystals
[14] = PanDDA background density correction factor
[15] = refined crystallographic occupancy

O=C(Nc1ccc(C(=O)N[C@H]2c3cccc(O)c3C[C@H]2C(=O)O)cc1)NC1CC1 [AVI-92, reference compound]
Kinetic solubility (uM), mean (Kinetic solubility): 524 µM
Mean solubility (Kinetic solubility): 524 µM
Papp, A-B (x10-6 cm/s), mean (Caco-2 cells; [3]): 0.04 x10-6 cm/s
Papp, B-A (x10-6 cm/s), mean (Caco-2 cells; [3]): 1.7 x10-6 cm/s
Ratio (B-A/A-B) (Caco-2 cells; [3]): 42.50
Recover Rate (%) (Caco-2 cells; [3]): 91%
Caco-2 ratio B-A/A-B (Caco-2 cells; net flux ratio): 40.7
Mouse microsome T1/2 (Microsomal stability; 1 μM compound, 0.5 mg/ml microsome protein): > 2 h
CLint (mouse) (µl/min/mg protein), mean (Microsomal stability; [4]): <11.6 µl/min/mg protein
T1/2 (min), mean (Microsomal stability; [4]): >120 min
CLint (mouse) (Microsomal stability): < 11.6 µl/min/mg protein

Nc1ncnc2c1ncn2[C@@H]1O[C@H](COP(=O)(O)OP(=O)(O)OC[C@H]2O[C@@H](O)[C@H](O)[C@@H]2O)[C@@H](O)[C@H]1O.[Na].[Na] [ADP-ribose, reference compound]
Hill slope (human macrodomain Targ1): 1.5

O=C1CCCN1Nc1ncnc2[nH]c3cc(F)ccc3c12 [AVI-219, reference compound]
Kinetic solubility (uM), mean (Kinetic solubility): 127 µM
Mean solubility (Kinetic solubility): 127 µM
Recover Rate (%) (Caco-2 cells; [3]): 98%
T1/2 (min), mean (Microsomal stability; [4]): 26.1 min
CLint (mouse) (Microsomal stability): 53.1 µl/min/mg protein

O=C1CCc2cc(C(=O)N3CC(C(=O)O)CCC34CCCC4)c(F)cc2N1 (stereo not drawn) [AVI-338]
Hill slope [1, 5]: 1.5
Hill slope ([1]; dose-response): 1.5
1-BDC [2, 6]: 0.07
X-ray crystal structure ([2]; TRUE = ligand-bound crystal structure obtained (PDB code given)): TRUE
Hit (PanDDA run, DMSO background map) [2, 7]: TRUE
Modeled (PanDDA run, DMSO background map) [2, 7]: TRUE
1-BDC (PanDDA run, DMSO background map) [2, 7]: 0.07
Hit (PanDDA run, overall) [2, 8]: TRUE
Modeled (PanDDA run, overall) [2, 8]: TRUE
Refined ligand occupancy (%) ([2]; crystallographic refinement): 14%
2*(1-BDC) (%) [2]: 14%
Binding site ([2]; site of Mac1 occupied in the X-ray crystal structure (Adenosine or Distal)): Adenosine

CN(CC1(O)CCOCC1)c1ncnc2[nH]ccc12 [AVI-4318]
Hill slope [1, 5]: 1.2
Hill slope [1, 9]: 1.2
1-BDC [2, 6]: 0.25
Refined ligand occupancy (%) ([2]; crystallographic refinement): 50%
X-ray crystal structure [2, 10]: TRUE
2*(1-BDC) (%) [2]: 50%
Binding site [2, 11]: Adenosine

Cc1c[nH]c2ncnc(NCC3(O)CCOCC3)c12 [AVI-4194, 4-(((5-methyl-7H-pyrrolo[2,3-d]pyrimidin-4-yl)amino)methyl)tetrahydro-2H-pyran-4-ol]
Hill slope [1, 5]: 1.3
Hill slope [1, 9]: 1.3
1-BDC [2, 6]: 0.09
Hit (PanDDA run, DMSO background map) [2, 12]: TRUE
Modeled (PanDDA run, DMSO background map) [2, 12]: TRUE
1-BDC (PanDDA run, DMSO background map) [2, 12]: 0.13 and 0.09
Hit (PanDDA run, overall) [2, 13]: TRUE
Modeled (PanDDA run, overall) [2, 13]: TRUE
Modeling comment (PanDDA run, overall) [2, 13]: Duplicate, not modeled
Refined ligand occupancy (%) ([2]; crystallographic refinement): 18%
X-ray crystal structure [2, 10]: TRUE
2*(1-BDC) (%) [2]: 18%
Binding site [2, 11]: Adenosine

CCC(O)[C@H]1CCCN1c1ncnc2[nH]ccc12 (stereo partly drawn) [AVI-3666]
Hill slope [1, 5]: 1.3
Hill slope [1, 9]: 1.3
Occupancy difference (refined_occupancy - 2*(1-BDC)) [2]: 10
1-BDC [2, 14]: 0.3
PanDDA run, overall: Hit [2]: TRUE
PanDDA run, overall: Modeled [2]: TRUE
PanDDA run, DMSO background map: 1-BDC [2]: 0.3
PanDDA run, DMSO background map: Hit [2]: TRUE
Total number of conformations [2]: 1
X-ray crystal structure [2, 10]: TRUE
2*(1-BDC) (%) [2]: 60%
Refined ligand occupancy (%) [2, 15]: 70%
Binding site [2, 11]: Adenosine

O[C@H]1CC[C@@H]2CCN(c3ncnc4[nH]ccc34)[C@@H]21 [AVI-3664]
Hill slope [1, 5]: 1.2
Hill slope [1, 9]: 1.2
Occupancy difference (refined_occupancy - 2*(1-BDC)) [2]: 0
1-BDC [2, 14]: 0.16
PanDDA run, overall: Hit [2]: TRUE
PanDDA run, overall: Modeled [2]: TRUE
PanDDA run, DMSO background map: 1-BDC [2]: 0.16
PanDDA run, DMSO background map: Hit [2]: TRUE
Total number of conformations [2]: 1
X-ray crystal structure [2, 10]: TRUE
2*(1-BDC) (%) [2]: 32%
Refined ligand occupancy (%) [2, 15]: 32%
Binding site [2, 11]: Adenosine

OC[C@@H]1C[C@@H]2CCC[C@@H]2N1c1ncnc2[nH]ccc12 [AVI-3720]
Hill slope [1, 5]: 1.2
Hill slope [1, 9]: 1.2
Occupancy difference (refined_occupancy - 2*(1-BDC)) [2]: 0
Phe132 loop open state [2]: TRUE
1-BDC [2, 14]: 0.29
PanDDA run, overall: Hit [2]: TRUE
PanDDA run, DMSO background map: 1-BDC [2]: 0.29
PanDDA run, DMSO background map: Hit [2]: TRUE
Total number of conformations [2]: 1
X-ray crystal structure [2, 10]: TRUE
2*(1-BDC) (%) [2]: 58%
Refined ligand occupancy (%) [2, 15]: 58%
Binding site [2, 11]: Adenosine

OC1(CNc2ncnc3[nH]ccc23)CCOCC1 [AVI-4314]
Hill slope [1, 5]: 1.2
Hill slope [1, 9]: 1.2
1-BDC [2, 6]: 0.15
Refined ligand occupancy (%) ([2]; crystallographic refinement): 30%
X-ray crystal structure [2, 10]: TRUE
2*(1-BDC) (%) [2]: 30%
Binding site [2, 11]: Adenosine

CC1(C)CCN(c2ncnc3[nH]ccc23)C(CO)C1 (stereo not drawn) [AVI-5994]
Hill slope [1, 5]: 1.2
Hill slope [1, 9]: 1.2
1-BDC [2, 6]: 0.23
Refined ligand occupancy (%) ([2]; crystallographic refinement): 46%
X-ray crystal structure [2, 10]: TRUE
2*(1-BDC) (%) [2]: 46%
Binding site [2, 11]: Adenosine
